These are literature values, as cited in article PMC6363533 (Biochemistry, 2018).

This data set deals with antithrombin. The settings on record: read-out: Kd of TNS binding to antithrombin; cited from earlier work.

pKd: −log10 of the molar value.

As a reminder, the pKd is −log10 of the Kd, conventionally taken in molar units. For the compound `Cc1ccc(Nc2ccc3cc(S(=O)(=O)O)ccc3c2)cc1` [TNS, 2-p-toluidinylnaphthalene-6-sulfonate], the pKd is under 5.00.
